{"source": "patent EP0319906A2", "about": "“Novel quinoline derivatives, processes for preparation thereof and antibacterial agent containing them” (Dainippon Pharmaceutical Co., Ltd., priority 1987, dated 1989)", "key": {"E. coli NIHJ JC-2": {"test_system": "E. coli NIHJ JC-2", "experiment": "In vitro antibacterial activity, twofold agar-dilution MIC", "type": "cell-based", "conditions": "Escherichia coli, NIHJJC2; E. coli NIHJ JC-2; Mueller-Hinton agar, 20-hour incubation at 37 °C; calculated for free base; read-out: minimum inhibitory concentrations (MIC)", "procedure": "(§1) The figures in the table show minimum inhibitory concentrations (MIC) (µg/ml), calculated for free base. […] One loopful of an overnight culture of test organisms in Mueller-Hinton broth was inoculated onto 10 ml drug- containing agar layers in petri dishes. Bacterial inocula contained approximately 10⁶ colonyl-forming units. […] The MIC was defined as the lowest drug concentration which prevented visible bacterial growth."}, "E. coli P-5101": {"test_system": "E. coli P-5101", "experiment": "In vitro antibacterial activity, twofold agar-dilution MIC", "type": "cell-based", "conditions": "Escherichia coli, P5101; E. coli P-5101; Mueller-Hinton agar, 20-hour incubation at 37 °C; calculated for free base; read-out: minimum inhibitory concentrations (MIC)", "procedure": "as §1"}, "P. aeruginosa 12": {"test_system": "P. aeruginosa 12", "experiment": "In vitro antibacterial activity, twofold agar-dilution MIC", "type": "cell-based", "conditions": "Pseudomonas aeruginosa; P. aeruginosa 12; Mueller-Hinton agar, 20-hour incubation at 37 °C; calculated for free base; read-out: minimum inhibitory concentrations (MIC)", "procedure": "as §1"}, "S. aureus 209 JC-1": {"test_system": "S. aureus 209 JC-1", "experiment": "In vitro antibacterial activity, twofold agar-dilution MIC", "type": "cell-based", "conditions": "Staphylococcus aureus, 209JC1; S. aureus 209 JC-1; Mueller-Hinton agar, 20-hour incubation at 37 °C; calculated for free base; read-out: minimum inhibitory concentrations (MIC)", "procedure": "as §1"}, "S. aureus No. 80": {"test_system": "S. aureus No. 80", "experiment": "In vitro antibacterial activity, twofold agar-dilution MIC", "type": "cell-based", "conditions": "Staphylococcus aureus; S. aureus No. 80; Mueller-Hinton agar, 20-hour incubation at 37 °C; calculated for free base; read-out: minimum inhibitory concentrations (MIC)", "procedure": "as §1"}, "S. aureus Terajima": {"test_system": "S. aureus Terajima", "experiment": "In vitro antibacterial activity, twofold agar-dilution MIC", "type": "cell-based", "conditions": "Staphylococcus aureus; S. aureus Terajima; Mueller-Hinton agar, 20-hour incubation at 37 °C; calculated for free base; read-out: minimum inhibitory concentrations (MIC)", "procedure": "as §1"}, "S. epidermidis No. 8": {"test_system": "S. epidermidis No. 8", "experiment": "In vitro antibacterial activity, twofold agar-dilution MIC", "type": "cell-based", "conditions": "Staphylococcus epidermidis; S. epidermidis No. 8; Mueller-Hinton agar, 20-hour incubation at 37 °C; calculated for free base; read-out: minimum inhibitory concentrations (MIC)", "procedure": "as §1"}, "S. marcescens S-9": {"test_system": "S. marcescens S-9", "experiment": "In vitro antibacterial activity, twofold agar-dilution MIC", "type": "cell-based", "conditions": "Serratia marcescens, S9; S. marcescens S-9; Mueller-Hinton agar, 20-hour incubation at 37 °C; calculated for free base; read-out: minimum inhibitory concentrations (MIC)", "procedure": "as §1"}, "S. pyogenes A65": {"test_system": "S. pyogenes A65", "experiment": "In vitro antibacterial activity, twofold agar-dilution MIC", "type": "cell-based", "conditions": "Streptococcus pyogenes; S. pyogenes A65; Mueller-Hinton agar, 20-hour incubation at 37 °C; calculated for free base; read-out: minimum inhibitory concentrations (MIC)", "procedure": "as §1"}, "[1]": {"test_system": "C. Trachomatics G/ur 1242", "experiment": "Antichlamydia activity, MIC in McCoy cells (inclusion bodies)", "type": "cell-based", "conditions": "C. Trachomatics G/ur 1242; McCoy cells, 36 °C for 40-48 hours; calculated for free base; read-out: minimum inhibitory concentrations (MIC)", "procedure": "(§2) The figures in the table show minimum inhibitory concentrations (MIC), (μg/ml), calculated for free base. Minimum inhibitory concentrations (MIC) were determined as follows. […] The cells were trypsinized and suspended in the same culture medium at a cell concentration of 1-2 x 10^5 cells/ml. One ml of the cell suspension was pipetted into flat-bottomed plastic tubes (14 mm in diameter) containing a cover slip (12 mm in diameter). The tubes were incubated in 5 % CO2-air at 36 °C for 20 hours. One-half ml of a chlamydial suspension (ca. 1-4 x 103 inclusion body forming units) was added into each tube, which was then centrifuged at 1500 x g for 60 minutes. The tubes were incubated for 1 hour at 36 °C. […] After further incubation at 36 °C for 40-48 hours, the cells on the cover glasses were stained with the Giemsa's solution. […] The MIC was defined as the lowest drug concentration where there were no inclusion bodies in all the cells on the cover slip."}, "[2]": {"test_system": "C. Trachomatics G/ur 1317", "experiment": "Antichlamydia activity, MIC in McCoy cells (inclusion bodies)", "type": "cell-based", "conditions": "C. Trachomatics G/ur 1317; McCoy cells, 36 °C for 40-48 hours; calculated for free base; read-out: minimum inhibitory concentrations (MIC)", "procedure": "as §2"}, "[3]": {"test_system": "C. Trachomatics G/ur 1448", "experiment": "Antichlamydia activity, MIC in McCoy cells (inclusion bodies)", "type": "cell-based", "conditions": "C. Trachomatics G/ur 1448; McCoy cells, 36 °C for 40-48 hours; calculated for free base; read-out: minimum inhibitory concentrations (MIC)", "procedure": "as §2"}, "C. Trachomatics G/ur 931": {"test_system": "C. Trachomatics G/ur 931", "experiment": "Antichlamydia activity, MIC in McCoy cells (inclusion bodies)", "type": "cell-based", "conditions": "C. Trachomatics G/ur 931; McCoy cells, 36 °C for 40-48 hours; calculated for free base; read-out: minimum inhibitory concentrations (MIC)", "procedure": "as §2"}, "A. laidlawii PG-8": {"test_system": "A. laidlawii PG-8", "experiment": "Antimycoplasma activity, twofold agar dilution MIC", "type": "cell-based", "conditions": "Acholeplasma laidlawii, PG8, 48 h; A. laidlawii PG-8; Chanock agar, 37 °C for 2 days, aerobically; calculated for free base; read-out: minimum inhibitory concentrations (MIC)", "procedure": "(§3) The figures in the table show minimum inhibitory concentrations (MIC), (μg/ml), calculated for free base. Minimum inhibitory concentrations (MIC) were determined by the twofold agar dilution method. The media used were Chanock broth and agar [PPLD broth and agar (Difco) supplemented with 20 % horse serum and 10 % fresh yeast extract]. A 2-3 day broth culture of organisms was diluted with Chanock broth to a cell density of about 10^6 cells/ml. One loopful (about […]) of the organism dilution was spotted onto 10-ml drug containing Chanock agar in petri dishes using a multiple inoculator ([…] International). […] Incubation was performed anaerobically using the […] anaerobic system (BBL) for M. buccale, M. fermentans, M. hominis, M. orale and M. salivarium, and aerobically for other Mycoplasma spp. The MIC was defined as the lowest compound concentration at which no growth of organism was detected."}, "M. arginini G-230": {"test_system": "M. arginini G-230", "experiment": "Antimycoplasma activity, twofold agar dilution MIC", "type": "cell-based", "conditions": "48 h; M. arginini G-230; Chanock agar, 37 °C for 2 days, aerobically; calculated for free base; read-out: minimum inhibitory concentrations (MIC)", "procedure": "as §3"}, "M. salivarium PG-20": {"test_system": "M. salivarium PG-20", "experiment": "Antimycoplasma activity, twofold agar dilution MIC", "type": "cell-based", "conditions": "48 h; M. salivarium PG-20; Chanock agar, 37 °C for 2 days, anaerobically; calculated for free base; read-out: minimum inhibitory concentrations (MIC)", "procedure": "as §3"}, "[4]": {"experiment": "Urinary excretion in mice", "type": "in vivo", "procedure": "A suspension containing Compound 1 was orally administered to mace at a dose of 5 mg/kg. Urine was collected over a period of 24 hours after administration. The level of the compound in urine was determined by the thin-layer cup-plated method using Escherichia coli kp as an indicator organism."}}}
{"smiles": "Cc1c(F)c(N2C[C@@H](C)N[C@@H](C)C2)c(F)c2c1c(=O)c(C(=O)O)cn2C1CC1", "note": "[Compound 1, 1-cyclopropyl-6,8-difluoro-5-methyl-7-(cis-3,5-demethyl-1-piperazinyl)-1,4-dihydro-4-oxoquinoline-3-carboxylic acid]", "values": [{"measurement": "MIC", "setting": "E. coli NIHJ JC-2", "result": 0.025, "unit": "µg/mL"}, {"measurement": "MIC", "setting": "E. coli P-5101", "result": 0.025, "unit": "µg/mL"}, {"measurement": "MIC", "setting": "P. aeruginosa 12", "result": 0.2, "unit": "µg/mL"}, {"measurement": "MIC", "setting": "S. aureus 209 JC-1", "result": 0.05, "unit": "µg/mL"}, {"measurement": "MIC", "setting": "S. aureus No. 80", "result": 0.0125, "unit": "µg/mL"}, {"measurement": "MIC", "setting": "S. aureus Terajima", "result": 0.05, "unit": "µg/mL"}, {"measurement": "MIC", "setting": "S. epidermidis No. 8", "result": 0.025, "unit": "µg/mL"}, {"measurement": "MIC", "setting": "S. marcescens S-9", "result": 0.39, "unit": "µg/mL"}, {"measurement": "MIC", "setting": "S. pyogenes A65", "result": 0.2, "unit": "µg/mL"}, {"measurement": "MIC", "setting": "[1]", "result": 0.025, "unit": "µg/mL"}, {"measurement": "MIC", "setting": "[2]", "result": 0.013, "unit": "µg/mL"}, {"measurement": "MIC", "setting": "[3]", "result": 0.025, "unit": "µg/mL"}, {"measurement": "MIC", "setting": "C. Trachomatics G/ur 931", "result": 0.013, "unit": "µg/mL"}, {"measurement": "MIC", "setting": "A. laidlawii PG-8", "result": 0.05, "unit": "µg/mL"}, {"measurement": "MIC", "setting": "M. arginini G-230", "result": 0.025, "unit": "µg/mL"}, {"measurement": "MIC", "setting": "M. salivarium PG-20", "result": 0.1, "unit": "µg/mL"}, {"measurement": "Amount", "setting": "[4]; amount in urine over 24 hours after oral 5 mg/kg", "result": 0.105, "unit": "mg"}, {"measurement": "dose excreted at 24 h", "setting": "[4]; mouse, in vivo, oral 5 mg/kg, mice, read-out: Urinary recovery for 24 hours", "result": 12.7, "unit": "%"}, {"measurement": "Volume", "setting": "[4]; urine collected over 24 hours after oral 5 mg/kg", "result": 14.0, "unit": "mL"}]}
